In PubChem BioAssay (NCI):
Where “and” joins values, the source holds several entries; their conditions need not be identical. Equal entries are not always repeated.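 96-well plates; 48 h exposure; 5 concentrations. Endpoints by linear interpolation between flanking doses. Not reached: highest tested concentration assigned. Abbreviation: GI50, concentration required for 50% inhibition of growth. Definition used: TGI = concentration required for complete inhibition of growth.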

Assays:
Test in all cases: NCI tumour cell line growth inhibition, 48 h
K-562 leukemia = test system: K-562 leukemia
MOLT-4 leukemia = test system: MOLT-4 leukemia
NCI-H460 lung = test system: NCI-H460 lung
OVCAR-5 ovarian = test system: OVCAR-5 ovarian
BT-549 breast = test system: BT-549 breast
MDA-MB-231 breast = test system: MDA-MB-231 breast
SN12C renal = test system: SN12C renal
LOX IMVI melanoma = test system: LOX IMVI melanoma
TK-10 renal = test system: TK-10 renal
MALME-3M melanoma = test system: MALME-3M melanoma

Row | SMILES | GI50 (K-562 leukemia) | TGI (K-562 leukemia) | GI50 (MOLT-4 leukemia) | TGI (MOLT-4 leukemia) | GI50 (NCI-H460 lung) | TGI (NCI-H460 lung) | GI50 (OVCAR-5 ovarian) | TGI (OVCAR-5 ovarian) | GI50 (BT-549 breast) | TGI (BT-549 breast) | GI50 (MDA-MB-231 breast) | TGI (MDA-MB-231 breast) | GI50 (SN12C renal) | TGI (SN12C renal) | GI50 (LOX IMVI melanoma) | TGI (LOX IMVI melanoma) | GI50 (TK-10 renal) | TGI (TK-10 renal) | GI50 (MALME-3M melanoma) | TGI (MALME-3M melanoma)
1 | O=C(Oc1ccc[nH]c1=O)c1cc([N+](=O)[O-])cc([N+](=O)[O-])c1 | 34.9 µM | > 100 µM | > 100 µM | > 100 µM | 34 µM | > 100 µM | > 100 µM | > 100 µM | > 100 µM | > 100 µM | > 100 µM | > 100 µM | > 100 µM | > 100 µM | > 100 µM | > 100 µM | > 100 µM | > 100 µM | 51.7 µM | > 100 µM
2 | O=C(O)c1ccc(CN2CCC(CN[C@@H]3C[C@H]3c3ccccc3)CC2)cc1 | > 100 µM | > 100 µM | > 100 µM | > 100 µM | > 100 µM | > 100 µM | > 100 µM | > 100 µM | > 100 µM | > 100 µM | > 100 µM | > 100 µM | > 100 µM | > 100 µM | > 100 µM | > 100 µM | > 100 µM | > 100 µM | > 100 µM | > 100 µM
3 | Cc1cc(Cl)ccc1OCC(=O)Nc1nc2c(Cl)cccc2s1 | 7.25 µM | > 100 µM | 6.94 µM | 60.3 µM | – | > 100 µM | 50.4 µM | > 100 µM | > 100 µM | > 100 µM | 16.2 µM | 91.9 µM | 39.2 µM | > 100 µM | 9.82 µM | 45.6 µM | 61.3 µM | > 100 µM | > 100 µM | > 100 µM
4 | COc1ccc2c(c1)C(=O)/C(=C/c1cccc(OCC(=O)c3ccccc3)c1)O2 | 0.722 µM | 2.13 µM | 1.44 µM | 3.52 µM | 14.4 µM | 36 µM | 4.31 µM | 14.5 µM | 3.63 µM | 13.1 µM | 7.62 µM | 23.2 µM | 6.15 µM | 25.6 µM | 2.83 µM | 9.54 µM | 2.45 µM | 5.5 µM | 1.95 µM | 4.8 µM
5 | Cc1ccc(S(=O)(=O)N=Nc2c(O)[nH]c3cc(O)c(C(=O)O)cc23)cc1 | – | > 100 µM | – | > 100 µM | – | > 100 µM | – | > 100 µM | – | > 100 µM | – | > 100 µM | – | > 100 µM | – | > 100 µM | – | > 100 µM | – | > 100 µM
6 | CNC(=O)OCc1nc(SSC(C)(C)C)n(C)c1COC(=O)NC | – | 7.06 µM | – | 4.16 µM | – | 26.6 µM | – | 21 µM | – | 2.83 µM | – | 6.95 µM | – | 13.7 µM | – | 8.61 µM | – | 13 µM | – | 3.76 µM
7 | CSC(SC)(C(=O)O)c1cc(-c2c(Cl)cccc2Cl)no1 | – | > 100 µM | – | > 100 µM | – | > 100 µM | – | > 100 µM | – | > 100 µM | – | > 100 µM | – | > 100 µM | – | > 100 µM | – | > 100 µM | – | > 100 µM
8 | O=C(O)CCCc1ccc2ccc3ccccc3c2c1 | – | > 100 µM | – | > 100 µM | – | > 100 µM | – | > 100 µM | – | > 100 µM | – | > 100 µM | – | > 100 µM | – | > 100 µM | – | > 100 µM | – | > 100 µM
9 | Cc1cn(-c2cc(NC(=O)c3cccc(C#Cc4cccc5[nH]nc(N)c45)c3)cc(C(F)(F)F)c2)cn1 | – | > 100 µM | 3.84 µM | > 100 µM | 4.13 µM | 16.7 µM | 3.16 µM | > 100 µM | 5.21 µM | 80.4 µM | 2.35 µM | 16.7 µM | 7.6 µM | > 100 µM | 2.87 µM | > 100 µM | 17.8 µM | 60.4 µM | 1.81 µM | 10.9 µM
10 | Cc1ccc(C)c(NC(=O)CC2Sc3ccccc3NC2=O)c1 (stereo not given) | – | > 100 µM | – | > 100 µM | 33.6 µM and > 74.1 µM | > 100 µM | 46.5 µM and > 100 µM | > 100 µM | 19.2 µM and 39 µM | 82.4 µM and > 95.8 µM | 5.08 µM and 34.8 µM | 28.9 µM and > 65.6 µM | 19.5 µM and 44.7 µM | 33.4 µM and > 88.1 µM | 34.5 µM and > 81.5 µM | > 100 µM | 18.3 µM and 41.9 µM | 35.5 µM and > 87.3 µM | 27.8 µM and 64.8 µM | 48.2 µM and > 100 µM
11 | CCN(CC)CCCC(CCl)Nc1ccnc2cc(Cl)ccc12 (stereo not given) | 3.42 µM and 3.99 µM | 15.7 µM | – | 81.1 µM and > 34.3 µM | 19.6 µM and 24.3 µM | 56.4 µM and > 100 µM | 11.4 µM and 23.5 µM | 28.6 µM and > 61.3 µM | 22.4 µM and 15.2 µM | 60.2 µM and 49.1 µM | 16.3 µM and 5.11 µM | 79.5 µM and > 43.1 µM | 52.1 µM and 48 µM | > 100 µM | 8.43 µM and 8.53 µM | 42.3 µM and 31.4 µM | 10.1 µM and 14.1 µM | 22.2 µM and 29.4 µM | 8.53 µM and 4.95 µM | 21.1 µM and 20.1 µM
12 | CC1(C)N=C(N)N=C(N)N1c1ccc(CCC(=O)Nc2ccc(S(=O)(=O)F)cc2)c(Cl)c1 | 0.342 µM | > 100 µM | 1.2 µM | > 100 µM | 0.0716 µM | > 100 µM | 2.4 µM | > 100 µM | 0.995 µM | > 100 µM | > 64.9 µM | > 100 µM | 0.487 µM | > 100 µM | 0.402 µM | > 100 µM | 0.604 µM | > 100 µM | 19.9 µM | > 100 µM
13 | O=C1C(=O)c2ccccc2C(O)=C1C(C1=C(O)c2ccccc2C(=O)C1=O)c1ccc(Cl)cc1 | – | 39.2 µM | – | 19.3 µM | – | 28.9 µM | – | 17.3 µM | – | 32.7 µM | – | 22.7 µM | – | 3.66 µM | – | 7.78 µM | – | 28.2 µM | – | 12 µM
14 | CC(C)C(O)(C(C)C)C(C)C | – | > 100 µM | – | > 100 µM | – | > 100 µM | – | > 100 µM | – | > 100 µM | – | > 100 µM | – | > 100 µM | – | > 100 µM | – | > 100 µM | – | > 100 µM
15 | CS(=O)(=O)CCNCc1coc(-c2ccc3ncnc(Nc4ccc(OCc5ccccc5)cc4)c3c2)c1 | 4.54 µM | 11 µM | 5.2 µM | 16.3 µM | 3.86 µM | 8.5 µM | 4.22 µM | 11.7 µM | 10.9 µM | > 25 µM | 4.15 µM | 8.26 µM | 3.57 µM | 8.04 µM | 4.27 µM | 8.81 µM | 1.95 µM | 12.2 µM | 4.71 µM | 9.57 µM
16 | COC(=O)c1ccc2[nH]c(O)c(C(=Nc3ccc(N(C)C(=O)CN4CCN(C)CC4)cc3)c3ccc4c(c3)OCO4)c2c1 | 0.056 µM | 6.16 µM | 0.323 µM | 2.4 µM | 0.902 µM | 2.65 µM | 1.71 µM | 3.72 µM | 1.06 µM | 2.47 µM | 1.08 µM | 2.76 µM | 0.321 µM | 9.61 µM | 0.415 µM | 1.9 µM | 1.36 µM | 3.14 µM | 0.895 µM | 2.29 µM
17 | O=C(/C=C/c1ccccc1)Nc1ncc(Cc2ccccc2Cl)s1 | 0.223 µM | > 100 µM | 0.459 µM | > 100 µM | 0.333 µM | > 100 µM | 0.511 µM | > 100 µM | 0.945 µM | > 100 µM | 0.668 µM | > 100 µM | 0.623 µM | > 100 µM | 0.426 µM | > 100 µM | > 100 µM | > 100 µM | 0.365 µM | > 100 µM
18 | C#CC1(O)C(COP(=O)(O)OCC(COP(=O)(O)OCC2OC(n3cc(F)c(=O)[nH]c3=O)CC2O)OCCCCCCCCCCCCCCCCCC)OC(n2ccc(N)nc2=O)C1O (stereo not given) | 0.338 µM | > 100 µM | 0.348 µM | > 100 µM | < 0.01 µM | – | 5.36 µM | > 52.6 µM | 0.155 µM | 5.41 µM | 0.32 µM | – | < 0.0229 µM | 1.93 µM | 0.0765 µM | > 27.7 µM | 0.241 µM | > 29 µM | 0.102 µM | 5.36 µM
19 | CCOc1cccc(/C=N/NC(=O)c2cccc(Nc3ccnc(C(F)(F)F)c3)c2)c1O | 1.32 µM | 30.6 µM | 0.232 µM | 2.08 µM | 1.17 µM | 9.53 µM | 2.33 µM | 60.7 µM | 1.44 µM | 36.5 µM | 0.888 µM | > 91.1 µM | 1.66 µM | > 70.7 µM | 0.473 µM | > 26.6 µM | 1.57 µM | 83.1 µM | 1.82 µM | 18.9 µM
20 | O=C(NC(=O)c1c(F)cccc1F)Nc1cccc(Oc2ncc(Cl)cn2)c1 | – | > 100 µM | – | > 100 µM | – | – | – | > 100 µM | – | > 100 µM | – | > 100 µM | – | > 100 µM | – | > 100 µM | – | > 100 µM | – | > 100 µM
21 | CCCCCCCCCCCCCCCCCCOC[C@H](COP(=O)(O)O[C@H]1[C@H](O)[C@@H](O)[C@H](O)C[C@H]1O)OC | > 100 µM and 18.4 µM | > 100 µM and 55.2 µM | 27 µM and 12.4 µM | > 100 µM and 33 µM | 79.4 µM and 11.7 µM | > 100 µM and 26.1 µM | – | – | > 100 µM and 15.9 µM | > 100 µM and 30.4 µM | > 100 µM and 13.6 µM | > 100 µM and 27.6 µM | > 100 µM and 12.2 µM | > 100 µM and 25.2 µM | 47.1 µM and 13.4 µM | > 100 µM and 27.3 µM | 41.8 µM and 7.74 µM | > 100 µM and 20.7 µM | > 100 µM and 18.3 µM | > 100 µM and 33.9 µM
